{"source": "paper PMC6562427", "about": "“A New Tyrosinase Inhibitor from the Red Alga Symphyocladia latiuscula (Harvey) Yamada (Rhodomelaceae)” (Marine Drugs, 2019)", "key": {"[1]": {"target": "T1, tyrosinase in α-MSH-induced B16F10 melanoma cells (Mus musculus, UniProt P11344)", "T1 construct": "the supernatant was used as cellular tyrosinase solution; endogenous in cells; host or cells: B16F10 melanoma cells, α-MSH stimulated", "T1 sequence (P11344 19-533)": "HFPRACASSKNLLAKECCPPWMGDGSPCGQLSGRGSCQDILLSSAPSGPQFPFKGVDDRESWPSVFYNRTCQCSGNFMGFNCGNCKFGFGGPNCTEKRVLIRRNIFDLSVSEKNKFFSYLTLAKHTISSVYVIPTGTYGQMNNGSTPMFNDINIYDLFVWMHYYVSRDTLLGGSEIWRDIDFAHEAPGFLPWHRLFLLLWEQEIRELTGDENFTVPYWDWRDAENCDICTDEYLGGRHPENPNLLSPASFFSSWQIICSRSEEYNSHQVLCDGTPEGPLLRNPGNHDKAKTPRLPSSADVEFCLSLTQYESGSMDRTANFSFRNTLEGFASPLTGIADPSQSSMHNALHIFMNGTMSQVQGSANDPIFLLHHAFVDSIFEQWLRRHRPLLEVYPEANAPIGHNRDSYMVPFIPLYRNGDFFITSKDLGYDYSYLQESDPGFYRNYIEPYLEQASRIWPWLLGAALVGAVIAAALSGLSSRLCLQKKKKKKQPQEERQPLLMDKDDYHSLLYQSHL", "experiment": "Cellular tyrosinase assay (L-DOPA oxidation)", "format": "cell-based", "conditions": "5 µM α-MSH 48 h; for intracellular tyrosinase level: α-MSH alone 215.73%; for effect on intracellular tyrosinase activity: 6.25, 12.5 and 25 µM", "method": "Intracellular tyrosinase inhibitory activity was evaluated by measuring the rate of oxidation of L-DOPA [57]. […] The cells were washed with PBS and lysed with a radio immunoprecipitation assay buffer. The cell lysates were kept in a deep freezer (−80 °C) for 1 h. After defrosting the cell lysates, the cellular extracts were purified by centrifugation at 14,000 rpm for 20 min at 4 °C, and the supernatant was used as cellular tyrosinase solution. A total of 80 µL of supernatant and 20 µL of L-DOPA (2 mg/mL) were added to a 96-well plate and incubated at 37 °C for 45 min. Dopachrome formation was then measured spectrophotometrically at 450 nm using a microplate spectrophotometer (Molecular Devices). Intracellular tyrosinase activity was calculated as the percentage of control."}, "[2]": {"test_system": "tyrosinase protein expression in α-MSH-stimulated B16F10 cells", "experiment": "Tyrosinase protein levels via western blotting", "format": "cell-based, mouse", "method": "The cell suspensions were centrifuged at 16,000 × g for 5 min, and the cell pellets were lysed in a lysis buffer and incubated on ice for 10 min. The cell lysates were centrifuged at 16,000 × g for 10 min, and the supernatant (total protein) was normalized using a Bradford protein assay kit. Aliquots of protein were resolved by sodium dodecyl sulfate-polyacrylamide gel electrophoresis and transferred onto a nitrocellulose membrane. The membrane was blocked with 10% nonfat milk (w/v) in tris-buffered saline with tween (TBST) (0.1 M Tris-HCl, pH 7.5, 1.5 M NaCl, 1% Tween20) for 2 h and incubated for approximately 24 h with TYR primary antibody. The immunoblots were then incubated with appropriate secondary antibodies for 2 h and detected using an enhanced chemiluminescence detection kit."}, "B16F10 melanoma cells": {"test_system": "B16F10 melanoma cells", "experiment": "Melanin content assay in α-MSH-stimulated cells", "format": "cell-based, mouse", "conditions": "for melanin content: α-MSH alone 151.72%; for effect on melanin content: 6.25, 12.5 and 25 µM", "method": "Intracellular melanin content was determined according to a previously reported procedure with minor modifications. Briefly, B16F10 cells were seeded in a 24-well plate at 2 × 10,000 cells/well and incubated for 24 h in DMEM containing 10% FBS. Cells were pretreated with 6.25, 12.5, and 25 μM test compounds for 1 h and stimulated with 5 μM α-MSH for 48 h. […] The cells were washed with PBS and dissolved in 1 N NaOH containing 10% DMSO by boiling at 80 °C for 30 min. The cell lysates were centrifuged at 14,000 rpm for 20 min, and absorbance of the supernatant was measured at 405 nm. Melanin content was determined by normalizing the absorbance with total protein content."}, "mushroom tyrosinase [3]": {"target": "T2, mushroom tyrosinase (Agaricus bisporus, UniProt C7FF04)", "T2 construct": "purchased Sigma Aldrich", "T2 sequence (C7FF04 1-392)": "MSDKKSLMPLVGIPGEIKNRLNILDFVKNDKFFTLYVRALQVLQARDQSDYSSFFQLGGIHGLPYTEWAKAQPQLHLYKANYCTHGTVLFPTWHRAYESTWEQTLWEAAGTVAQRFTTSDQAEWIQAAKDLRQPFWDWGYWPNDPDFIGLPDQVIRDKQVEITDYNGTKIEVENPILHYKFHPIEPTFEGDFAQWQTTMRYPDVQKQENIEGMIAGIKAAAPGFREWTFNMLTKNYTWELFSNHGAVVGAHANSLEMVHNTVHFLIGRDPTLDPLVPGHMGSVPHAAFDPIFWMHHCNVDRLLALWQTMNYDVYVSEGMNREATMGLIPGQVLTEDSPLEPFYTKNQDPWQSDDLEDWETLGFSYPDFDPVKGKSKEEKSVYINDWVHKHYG", "experiment": "Mushroom tyrosinase inhibitory assay (spectrophotometric)", "format": "biochemical", "conditions": "mean ± SD, n = 3", "method": "The inhibitory activity of mushroom tyrosinase was carried out using a spectrophotometric method described in [27] with slight modifications. […] Then, 20 µL of tyrosinase was added and incubated at room temperature for between 10 and 30 minutes. Absorbance was measured at 490 nm after incubation."}, "[4]": {"experiment": "Cell viability, MTT assay", "format": "cell-based", "conditions": "mouse", "method": "B16F10 mouse melanoma cells obtained from American Type Culture Collection (Manassas, VA, USA) were maintained in 10% FBS in high-glucose DMEM containing 100 U/mL penicillin and 100 μg/mL streptomycin at 37 °C in a humidified atmosphere with 5% CO2. Cytotoxicity was evaluated using a 3-(4,5-dimethylthiazol-2-yl)-2,5-diphenyltetrazolium bromide (MTT) assay. After 95% of confluence, B16F10 cells were seeded in a 96-well plate at 10,000 cells/well and incubated for 24 h in DMEM supplemented with 10% FBS. The cells were then fed fresh serum-free DMEM containing different concentrations (25 to 100 μM) of the test compounds and incubated for 48 h. After that, the cells were incubated with 100 μL of MTT at a concentration of […] in phosphate-buffered saline (PBS) for 2 h. Absorbance was measured at 490 nm by a microplate reader (Promega Corporation Instrument, USA) after 2 h of incubation. The viability of cells at 48 h upon co-treatment with α-MSH was evaluated by treating cells with 5 μM α-MSH 1 h after the treatment with test compounds."}, "mushroom tyrosinase [5]": {"target": "T2, mushroom tyrosinase", "experiment": "Kinetic study against mushroom tyrosinase (Lineweaver-Burk and secondary plots)", "format": "biochemical", "method": "The inhibition type was determined using a Lineweaver–Burk plot. The apparent slope (Kmapp/Vmaxapp) and intercept (1/Vmaxapp) versus different inhibitor concentrations was used to determine the inhibition constant (Ki). Different kinetic parameters were obtained for different concentrations of the substrate (0.5, 0.75, and 1 mM) and inhibitors (compound 1—0.0, 4.0, 6.6, and 9.3 µM; compound 3—0, 2.5, 2.6, and 2.7 µM). Sigmaplot version 12.0 (SPSS Inc., Chicago, IL, USA) was employed to generate the plots."}, "[6]": {"conditions": "IC50 L-Tyrosine, substrate L-tyrosine"}}, "note": "Where two headings read alike, the source gives them in different places.", "data": [{"molecule": "OC[C@H]1O[C@@H](Oc2ccc(O)cc2)[C@H](O)[C@@H](O)[C@@H]1O", "note": "[Arbutin, reference compound]", "values": [{"measurement": "intracellular tyrosinase level", "setting": "[1]; 500 µM", "result": 130.75, "unit": "%"}, {"measurement": "tyrosinase protein expression", "setting": "[2]; arbutin pre-treatment (positive control)", "result": "significantly reduced the expression levels"}, {"measurement": "melanin content", "setting": "B16F10 melanoma cells; 500 µM, 5 µM α-MSH 48 h", "result": 124.06, "unit": "%"}]}, {"molecule": "COCc1c(Br)c(O)c(O)c(Br)c1Br", "note": "[Compound 2, 2,3,6-tribromo-4,5-dihydroxybenzyl methyl ether]", "values": [{"measurement": "effect on intracellular tyrosinase activity", "setting": "[1]", "result": "did not show a significant reduction"}, {"measurement": "tyrosinase protein expression", "setting": "[2]; 6.25, 12.5 and 25 μM, 48 h", "result": "did not reduce expression"}, {"measurement": "IC50", "setting": "mushroom tyrosinase [3]; IC50 L-DOPA, substrate L-DOPA", "result": "> 300", "unit": "µM"}, {"measurement": "IC50", "setting": "mushroom tyrosinase [3]; [6]", "result": "113.9 ± 0.75", "unit": "µM"}, {"measurement": "viability at 48 h, 100 µM", "setting": "[4]; 100 µM, 48 h, MTT, read-out: viable cells", "result": "~100", "unit": "%"}, {"measurement": "effect on melanin content", "setting": "B16F10 melanoma cells; 5 µM α-MSH 48 h", "result": "no significant reduction"}]}, {"molecule": "Oc1c(O)c(Br)c(COCc2c(Br)c(O)c(O)c(Br)c2Br)c(Br)c1Br", "note": "[Compound 3, bis-(2,3,6-tribromo-4,5-dihydroxybenzylmethyl ether)]", "values": [{"measurement": "intracellular tyrosinase level", "setting": "[1]; 25 µM", "result": 94.81, "unit": "%"}, {"measurement": "effect on intracellular tyrosinase activity", "setting": "[1]", "result": "decreased in a dose-dependent manner"}, {"measurement": "tyrosinase protein expression", "setting": "[2]; 6.25, 12.5 and 25 μM, 48 h", "result": "inhibited α-MSH-induced accumulation of tyrosinase proteins in a concentration-dependent manner"}, {"measurement": "IC50", "setting": "mushroom tyrosinase [3]; IC50 L-DOPA, substrate L-DOPA", "result": "111 ± 4.95", "unit": "µM"}, {"measurement": "IC50", "setting": "mushroom tyrosinase [3]; [6]", "result": "2.92 ± 0.04", "unit": "µM"}, {"measurement": "Ki", "setting": "mushroom tyrosinase [5]", "result": 1.98, "unit": "µM"}, {"measurement": "Inhibition Type", "setting": "mushroom tyrosinase [5]; substrate L-tyrosine, from Lineweaver-Burk plots", "result": "competitive-type inhibition"}, {"measurement": "viability at 48 h, 100 µM", "setting": "[4]", "result": 86.9, "unit": "%"}, {"measurement": "melanin content", "setting": "B16F10 melanoma cells; 25 µM, pretreated 1 h then 5 µM α-MSH 48 h", "result": 98.68, "unit": "%"}, {"measurement": "effect on melanin content", "setting": "B16F10 melanoma cells; 5 µM α-MSH 48 h", "result": "reduced the melanin content in a dose-dependent manner"}]}]}
